Assay results reported in patent publication EP0728012B1, “NOVEL GnRH ANALOGUES WITH ANTITUMOUR EFFECTS AND PHARMACEUTICAL COMPOSITIONS THEREOF” (Lovas, Sandor, priority 1994, dated 1996).
Non-standard residues stand in square brackets, D forms with d. Residues, ends and D or L forms follow the SMILES beside them. dPhe(4-Cl) = N[C@H](Cc1ccc(Cl)cc1)C(=O)O

Experiments:
[1] = system: PC3 human prostate carcinoma cell line; experiment: Inhibition of colony formation (dose-survival relation, Example 18); assay type: cell-based
Method: (§1) In the case of cytostatics the cell-damaging effect is not cell-specific. […] One part of the arrested cells again go into the cycle, the other part may perish (apoptosis). […] The investigations were carried out on MCF-7 and MDA-MB-231 human mammary carcinoma cell lines, PC3 human prostate 15 carcinoma cell line and Ishikawa human endometrium carcinoma cell line. Three hundred cells were set into Petri dishes of 3.5 cm in diameter each. The treatment was carried out once, 24 hours following the explantation, then the colonies formed were counted after 9 to 12 days.

[2] = system: MDA-MB-231 human mammary carcinoma cell line; experiment: as above; assay type: cell-based
Method: as §1

[3] = system: MCF-7 human mammary carcinoma cell line; experiment: as above; assay type: cell-based; settings: for % Inhibition of colony formation: treated once
Method: as §1

[4] = system: Ishikawa human endometrium carcinoma cell line; experiment: as above; assay type: cell-based
Method: as §1

human tumour cell lines [5] = experiment: Inhibition of colony formation (Example 48), comparison with the control D-Trp^6-hGnRH; assay type: cell-based; settings: data of Table VIII
Method: (§2) The examination gives accurate information about the cell-damaging effect of the substance tested as a function of varying doses. The treatment was carried out once; the colonies formed from the surviving cells were counted after 8 - 12 days. […] A part of the arrested cells again entered the cycle, another part of them might be destroyed (apoptosis). […] In the case of a dose-response investigation, colonies containing less than 15 cells were not counted. 300 cells were put into each Petri dishes of 3.5 cm in diameter. The treatment was once carried out 24 hours after setting, then the colonies formed were counted after 8 - 12 days. The cells were treated once after 24 hours with 1-50 µM of various GnRH analogues of Examples above or with 1 - 50 µM of GnRH-III, respectively. The percentages of inhibition obtained on MCF-7, MDA-MB-231, PC3 and Ishikawa cells, respectively, together with the dose of the active agent used are shown in Table VIII.
In these studies the D-Trp^6-hGnRH analogue (Sigma Co.) commonly used in the tumour therapy was employed as control.

human tumour cell lines [6] = assay type: cell-based; settings: 30 µM
Method: (§3) After being treated with trypsin, 300.000 each of MCF-7, MDA-MB-231, PC3 or Ishikawa cells, respectively, were passed into Petri dishes of 10 cm in diameter. Starting from the day following the setting, the cells were treated with 1-50 µM of the GnRH analogue in the exponential growth phase. During the experiment lasting for 5 days, the cells were treated in every two days with the peptide hormone dissolved in the nutrient medium, then the cell count was determined on the sixth day.

Ishikawa [7] = experiment: Inhibition of colony formation by GnRH analogues (dose-survival, Example 48); assay type: cell-based, human; settings: 50 µM
Method: as §2

PC3 [8] = experiment: as above; assay type: cell-based, human; settings: for % Inhibition of the colony formation: 50 µM; for inhibition of colony formation: within the dose range used (1-50 µM)
Method: as §2

MCF-7 [9] = experiment: as above; assay type: cell-based, human; settings: treated once
Method: as §2

MDA-MB-231 [10] = experiment: as above; assay type: cell-based, human
Method: as §2

PC3 [11] = experiment: In vitro inhibition of cell proliferation (Example 19); assay type: cell-based, human
Method: (§4) The procedure of treatment was as follows. After trypsinization the cells, 400,000 cells of MCF-7, MDA-MB-231 human mammary carcinoma, PC3 human prostate carcinoma or Ishikawa human endometrium tumour each were passed into Petri dishes of 10 cm in diameter. Starting from the day following transfer, the cells were treated with the substances to be tested in solution prepared with the nutrient medium during the exponential growth phase. The cultures were treated with 1 to 50 µM (calculated for the total volume of the culture) or MI-1544 GnRH antagonist, MI-1892 chicken GnRH antagonist or SJ-1004 GnRH antagonist analogues as well as synthetic lamprey GnRH-III hormone every two days and the cell count was determined on the 7th day.

Ishikawa [12] = system: Ishikawa
Method: as §4, with “antagonist analogues as well as synthetic lamprey GnRH-III hormone every two days and the cell count was determined” left out

MXT mouse mammary tumour = experiment: In vivo antitumour effect on mice bearing MXT mouse mammary tumour; set-up: species or system CBA/Ca mice
Method: The MXT mouse mammary carcinoma contains ER and PgR proteins; furthermore, it contains also GnRH receptors; therefore, this in vivo tumour model is suitable for studying both the direct and indirect effects. The treatment of mice bearing MXT mammary tumour was commenced on the day following transplantation. […] Table VI The animals were daily treated in s.c. route starting from the day following transplantation of MXT mouse mammary tumour. […] MI-1544: 75 µg/day/animal; MI-1892: 75 µg/day/animal.

MCF-7 [13] = settings: MCF-7; 30 µM active substance; conjugate, treated once; cell count on 7th day; listed as 8. P-GFLG-1004
Method: (§5) The procedure of treatment was as follows. After trypsinization the cells, 400,000 cells of MCF-7, MDA-MB-231 human mammary carcinoma, PC3 human prostate carcinoma or Ishikawa human endometrium tumour each were passed into Petri dishes of 10 cm in diameter. Starting from the day following transfer, the cells were treated with the substances to be tested in solution prepared with the nutrient medium during the exponential growth phase. […]

MDA-MB-231 [14] = settings: MDA-MB-231; 30 µM active substance; conjugate, treated once; listed as 8. P-GFLG-1004
Method: as §5

MCF-7 [15] = assay type: cell-based, human; settings: MCF-7 ER-positive; after 6 days' treatment; dose not stated
Method: as §3

MDA-MB-231 [16] = assay type: cell-based, human; settings: MDA-MB-231 ER-negative; after 6 days' treatment; dose not stated
Method: as §3

[17] = 30 µM, peptide alone, two treatments on days 2 and 4
[18] = MXT mouse mammary tumour, Treatment weeks: 13, 1x75 µg daily s.c.
[19] = MXT mouse mammary tumour, Treatment weeks: 20, 1x75 µg daily s.c.
[20] = 30 µM active substance, conjugate, treated once

NCCCC[C@H](NC(=O)[C@H](Cc1c[nH]c2ccccc12)NC(=O)[C@H](Cc1c[nH]cn1)NC(=O)[C@@H]1CCC(=O)N1)C(=O)N[C@@H](Cc1c[nH]cn1)C(=O)N[C@@H](CC(=O)O)C(=O)N[C@@H](Cc1c[nH]c2ccccc12)C(=O)N[C@@H](CCCCN)C(=O)N1CCC[C@H]1C(=O)NCC(N)=O [6. Lys^4-GnRH-III, Lys^4-GnRH-III]
inhibition of colony formation ([1]; concentration not given): did not show any inhibition | inhibition of colony formation ([2]; concentration not given): 35% | inhibition of colony formation ([3]; concentration not given): 40% | inhibition of colony formation ([4]; concentration not given): 21% | inhibitory effect compared with the control D-Trp^6-hGnRH (human tumour cell lines [5]): exceeded the inhibitory effect of control | proliferation-inhibiting effect (human tumour cell lines [6]): 27-31% | % Inhibition of the colony formation (Ishikawa [7]): 21% | % Inhibition of the colony formation (PC3 [8]): 0% | inhibition of colony formation (PC3 [8]): did not influence | % Inhibition of the colony formation (MCF-7 [9]; 10 µM): 15% | % Inhibition of the colony formation (MCF-7 [9]; 50 µM): 40% | % Inhibition of the colony formation (MDA-MB-231 [10]; 10 µM): 18% | % Inhibition of the colony formation (MDA-MB-231 [10]; 50 µM): 35% | % Inhibition of the colony formation (MDA-MB-231 [10]; 50 µM, listed as Example 31, 50 µM): 35-42%

CC(=O)NCCCC[C@H](NC(=O)[C@H](Cc1c[nH]c2ccccc12)NC(=O)[C@H](Cc1c[nH]cn1)NC(=O)[C@@H]1CCC(=O)N1)C(=O)N[C@@H](Cc1c[nH]cn1)C(=O)N[C@@H](CC(=O)O)C(=O)N[C@@H](Cc1c[nH]c2ccccc12)C(=O)N[C@@H](CCCCN)C(=O)N1CCC[C@H]1C(=O)NCC(N)=O [7. [Lys(ε-AC)]^4 GnRH-III, [Lys(î-Ac)]^4 -GnRH-III]
inhibitory effect compared with the control D-Trp^6-hGnRH (human tumour cell lines [5]): exceeded the inhibitory effect of control | proliferation-inhibiting effect (human tumour cell lines [6]): 27-31% | % Inhibition of the colony formation (Ishikawa [7]): 14% | % Inhibition of the colony formation (PC3 [8]): 0% | inhibition of colony formation (PC3 [8]): did not influence | % Inhibition of the colony formation (MCF-7 [9]; 10 µM): 40% | % Inhibition of the colony formation (MCF-7 [9]; 50 µM): 52% | % Inhibition of the colony formation (MDA-MB-231 [10]; 10 µM): 31% | % Inhibition of the colony formation (MDA-MB-231 [10]; 50 µM): 42% | % Inhibition of the colony formation (MDA-MB-231 [10]; 50 µM, listed as Example 32, 50 µM): 35-42%

CC(=O)N[C@H](Cc1c[nH]c2ccccc12)C(=O)N[C@H](Cc1ccc(Cl)cc1)C(=O)N[C@H](Cc1c[nH]c2ccccc12)C(=O)N[C@@H](CO)C(=O)N[C@@H](Cc1ccc(O)cc1)C(=O)N[C@H](CCCCN)C(=O)N[C@@H](CC(C)C)C(=O)N[C@@H](CCCNC(=N)N)C(=O)N1CCC[C@H]1C(=O)N[C@H](C)C(N)=O [MI-1544, Ac-D-Trp^1,3,D-Cpa^2,D-Lys^6,D-Ala^10-hGnRH, reference compound] (Ac-[dW][dPhe(4-Cl)][dW]SY[dK]LRP[dA]-NH2)
% Inhibition of colony formation ([1]; 50 µM): 20% | % Inhibition of colony formation ([2]; 50 µM): 20% | % Inhibition of colony formation ([3]; 50 µM (active substance)): 45% | % Inhibition of colony formation ([4]; 50 µM): 5% | inhibition of proliferation (PC3 [11]; [17]): 24% | inhibition of proliferation (Ishikawa [12]; [17]): 8% | Inhibition % (MXT mouse mammary tumour; [18]): 46% | Tumour volume as control (%) (MXT mouse mammary tumour; [18]): 54% | Inhibition % (MXT mouse mammary tumour; [19]): 46% | Tumour volume as control (%) (MXT mouse mammary tumour; [19]): 54% | Tumour volume (cm^3) (MXT mouse mammary tumour; day 9, 75 µg/day/animal s.c.): 0.44 cm^3 | Tumour volume as control (%) (MXT mouse mammary tumour; day 9, 75 µg/day/animal s.c.): 63% | Tumour volume (cm^3) (MXT mouse mammary tumour; day 11, 75 µg/day/animal s.c.): 1.03 cm^3 | Tumour volume as control (%) (MXT mouse mammary tumour; day 11, 75 µg/day/animal s.c.): 57% | Tumour volume (cm^3) (MXT mouse mammary tumour; day 13, 75 µg/day/animal s.c.): 1.74 cm^3 | Tumour volume as control (%) (MXT mouse mammary tumour; day 13, 75 µg/day/animal s.c.): 54% | Tumour volume (cm^3) (MXT mouse mammary tumour; day 17, 75 µg/day/animal s.c.): 2.63 cm^3 | Tumour volume as control (%) (MXT mouse mammary tumour; day 17, 75 µg/day/animal s.c.): 51% | Tumour volume (cm^3) (MXT mouse mammary tumour; day 18, 75 µg/day/animal s.c.): 3.94 cm^3 | Tumour volume as control (%) (MXT mouse mammary tumour; day 18, 75 µg/day/animal s.c.): 53% | Tumour volume (cm^3) (MXT mouse mammary tumour; day 20, 75 µg/day/animal s.c.): 5.02 cm^3 | Tumour volume as control (%) (MXT mouse mammary tumour; day 20, 75 µg/day/animal s.c.): 54% | Tumour volume (cm^3) (MXT mouse mammary tumour; day 24, 75 µg/day/animal s.c.): 6.08 cm^3 | Tumour volume as control (%) (MXT mouse mammary tumour; day 24, 75 µg/day/animal s.c.): 48% | Tumour volume (cm^3) (MXT mouse mammary tumour; day 26, 75 µg/day/animal s.c.): 8.42 cm^3 | Tumour volume as control (%) (MXT mouse mammary tumour; day 26, 75 µg/day/animal s.c.): 60%

D-Phe^2,D-Trp^3,{D-Lys[n-poly(N-vinylpyrrolidone-co-maleic acid)-Gly-Phe-Leu-Gly]}^6,-GnRH [P-GFLG-1004]
% Inhibition of colony formation ([1]; 30 µM): 100% | % Inhibition of colony formation ([1]; 50 µM): 100% | % Inhibition of colony formation ([2]; 10 µM): 62% | % Inhibition of colony formation ([2]; 50 µM, listed as 8. P-GFLG-1004, 50 µM): 92% | % Inhibition of colony formation ([3]; 10 µM (active substance)): 75% | % Inhibition of colony formation ([3]; 50 µM (active substance), listed as 8. P-GFLG-1004, 50 µM): 95% | % Inhibition of colony formation ([4]; 10 µM): 3% | % Inhibition of colony formation ([4]; 50 µM): 46% | % Inhibition of cell division (proliferation) (MCF-7 [13]): 63% | % Inhibition of cell division (proliferation) (MDA-MB-231 [14]): 68% | % Inhibition of cell division (proliferation) (PC3 [11]; [20]): 35% | % Inhibition of the colony formation (PC3 [8]): 31% | % Inhibition of cell division (proliferation) (Ishikawa [12]; [20]): 20%

D-Phe^6-GnRH(1-9)-ethylamide [Ovurelin]
inhibition (change in the cell count) (MCF-7 [15]): 5-15% | inhibition of cell proliferation (MDA-MB-231 [16]): 25-30%

[D-Ser(tBu)]^6,desGly^10-hGnRH(1-9)EA [Buserelin]
inhibition (change in the cell count) (MCF-7 [15]): 5-15% | inhibition of cell proliferation (MDA-MB-231 [16]): 25-30%
